From PMC12814364 (Journal of the American Chemical Society, 2025)
“Also recorded” adds a separate entry of the source. Where two headings read alike, the source gives them in different places.

Key:
[1] = target: T1, HBHA110–199 (Mycobacterium tuberculosis, UniProt P9WIP9); experiment: ITC binding of HS hexadecasaccharides with HBHA110–199
[2] = target: T2, full-length HBHA (Mycobacterium tuberculosis, UniProt P9WIP9); experiment: Far-UV circular dichroism of full-length HBHA with added sugar; settings: varying equivalents added; negative control
T2 sequence (P9WIP9 1-199): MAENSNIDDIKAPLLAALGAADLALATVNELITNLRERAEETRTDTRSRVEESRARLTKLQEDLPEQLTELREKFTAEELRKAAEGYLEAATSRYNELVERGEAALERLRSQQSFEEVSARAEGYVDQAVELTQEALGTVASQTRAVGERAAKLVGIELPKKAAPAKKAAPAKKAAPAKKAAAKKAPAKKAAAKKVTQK

[3] = target: T1, HBHA110–199; settings: cited from earlier work
[4] = Tris buffer pH 7.6, 25 °C, two trials, average ± standard deviation

CC(=O)N[C@H]1[C@@H](O[C@H]2[C@H](O)[C@@H](O)[C@H]3OC[C@@H]2O3)O[C@H](CO)[C@@H](O[C@@H]2O[C@@H](C(=O)O)[C@@H](O[C@H]3O[C@H](CO)[C@@H](O[C@@H]4O[C@@H](C(=O)O)[C@@H](O[C@H]5O[C@H](CO)[C@@H](O[C@@H]6O[C@@H](C(=O)O)[C@@H](O[C@H]7O[C@H](CO)[C@@H](O[C@@H]8O[C@@H](C(=O)O)[C@@H](O[C@H]9O[C@H](CO)[C@@H](O[C@@H]%10O[C@@H](C(=O)O)[C@@H](O[C@H]%11O[C@H](CO)[C@@H](O[C@@H]%12O[C@@H](C(=O)O)[C@@H](O[C@H]%13O[C@H](CO)[C@@H](O[C@@H]%14O[C@@H](C(=O)O)[C@@H](O[C@H]%15O[C@H](CO)[C@@H](O)[C@H](O)[C@H]%15NC(C)=O)[C@H](O)[C@H]%14O)[C@H](O)[C@H]%13NC(C)=O)[C@H](O)[C@H]%12O)[C@H](O)[C@H]%11NC(C)=O)[C@H](O)[C@H]%10O)[C@H](O)[C@H]9NC(C)=O)[C@H](O)[C@H]8O)[C@H](O)[C@H]7NC(C)=O)[C@H](O)[C@H]6O)[C@H](O)[C@H]5NC(C)=O)[C@H](O)[C@H]4O)[C@H](O)[C@H]3NC(C)=O)[C@H](O)[C@H]2O)[C@@H]1O [compound 20]
dissociation constant, KD [1, 4]: no detectable binding; also recorded: no binding detected | conformational change of full-length HBHA (CD) [2]: did not induce any significant conformational change

O=C(O)[C@@H]1O[C@@H](O[C@H]2[C@H](O)[C@@H](NS(=O)(=O)O)[C@@H](O[C@H]3[C@H](O)[C@@H](OS(=O)(=O)O)[C@H]4OC[C@@H]3O4)O[C@@H]2COS(=O)(=O)O)[C@H](OS(=O)(=O)O)[C@@H](O)[C@@H]1O[C@H]1O[C@H](COS(=O)(=O)O)[C@@H](O[C@@H]2O[C@@H](C(=O)O)[C@@H](O[C@H]3O[C@H](COS(=O)(=O)O)[C@@H](O[C@@H]4O[C@@H](C(=O)O)[C@@H](O[C@H]5O[C@H](COS(=O)(=O)O)[C@@H](O)[C@H](O)[C@H]5NS(=O)(=O)O)[C@H](O)[C@H]4OS(=O)(=O)O)[C@H](O)[C@H]3NS(=O)(=O)O)[C@H](O)[C@H]2OS(=O)(=O)O)[C@H](O)[C@H]1NS(=O)(=O)O [HS8]
n (sugar-to-protein binding ratio) ([1]; 25 °C, Tris buffer pH 7.6): 0.56 ± 0.01 | ΔG ([1]; 25 °C, Tris buffer pH 7.6): –7.68 ± 0.08 kcal/mol | ΔH ([1]; 25 °C, Tris buffer pH 7.6): 5.38 ± 0.05 kcal/mol | –TΔS ([1]; 25 °C, Tris buffer pH 7.6): –13.05 ± 0.07 kcal/mol | Kd ([1]; Tris buffer pH 7.6, 25 °C, two trials, average ± standard deviation, read-out: dissociation constant, KD): 2.4 ± 0.3 µM | Kd ([3]; Average of Repeat I P(KKAA), residue 160-164, read-out: Dissociation constant from NMR cross-peak movement, average): 24.5 µM | Kd ([3]; Average of Repeat II P(AKKAA), residue 165-170, read-out: Dissociation constant from NMR cross-peak movement, average): 11.8 µM | Kd ([3]; Average of Repeat III P(AKKAA), residue 171-176, read-out: Dissociation constant from NMR cross-peak movement, average): 6.9 µM | Kd ([3]; Average of Repeat IV P(AKKAAAKKA), residue 177-186, read-out: Dissociation constant from NMR cross-peak movement, average): 6.2 µM | Kd ([3]; Average of Repeat V P(AKKAAAKKV), residue 187-196, read-out: Dissociation constant from NMR cross-peak movement, average): 4.6 µM | average Δδresidue (weighted chemical shift deviation) of HBHA110–199 ([3]; protein-to-sugar molar ratio 1:2, all residues, reported previously, ref Huang et al., 2017): 0.019 ppm | Kd ([3]; residue A163, Repeat I, read-out: Dissociation constant from NMR cross-peak movement): 20.7 µM | Kd ([3]; residue A164, Repeat I, read-out: Dissociation constant from NMR cross-peak movement): 22.2 µM | Kd ([3]; residue A166, Repeat II, read-out: Dissociation constant from NMR cross-peak movement): 14.4 µM | Kd ([3]; residue A169, Repeat II, read-out: Dissociation constant from NMR cross-peak movement): 14.6 µM | Kd ([3]; residue A170, Repeat II, read-out: Dissociation constant from NMR cross-peak movement): 8.3 µM | Kd ([3]; residue A172, Repeat III, read-out: Dissociation constant from NMR cross-peak movement): 10.3 µM | Kd ([3]; residue A175, Repeat III, read-out: Dissociation constant from NMR cross-peak movement): 8.5 µM | Kd ([3]; residue A176, Repeat III, read-out: Dissociation constant from NMR cross-peak movement): 5 µM | Kd ([3]; residue A178, Repeat IV, read-out: Dissociation constant from NMR cross-peak movement): 4.8 µM | Kd ([3]; residue A181, Repeat IV, read-out: Dissociation constant from NMR cross-peak movement): 4.8 µM | Kd ([3]; residue A182, Repeat IV, read-out: Dissociation constant from NMR cross-peak movement): 4.6 µM | Kd ([3]; residue A183, Repeat IV, read-out: Dissociation constant from NMR cross-peak movement): 4.6 µM | Kd ([3]; residue A186, Repeat IV, read-out: Dissociation constant from NMR cross-peak movement): 3.1 µM | Kd ([3]; residue A188, Repeat V, read-out: Dissociation constant from NMR cross-peak movement): 4.8 µM | Kd ([3]; residue A191, Repeat V, read-out: Dissociation constant from NMR cross-peak movement): 5.3 µM | Kd ([3]; residue A192, Repeat V, read-out: Dissociation constant from NMR cross-peak movement): 4.6 µM | Kd ([3]; residue A193, Repeat V, read-out: Dissociation constant from NMR cross-peak movement): 4.8 µM | Kd ([3]; residue K161, Repeat I, read-out: Dissociation constant from NMR cross-peak movement): 9.8 µM | Kd ([3]; residue K162, Repeat I, read-out: Dissociation constant from NMR cross-peak movement): 45.3 µM | Kd ([3]; residue K167, Repeat II, read-out: Dissociation constant from NMR cross-peak movement): 4.2 µM | Kd ([3]; residue K168, Repeat II, read-out: Dissociation constant from NMR cross-peak movement): 17.2 µM | Kd ([3]; residue K173, Repeat III, read-out: Dissociation constant from NMR cross-peak movement): 4.2 µM | Kd ([3]; residue K174, Repeat III, read-out: Dissociation constant from NMR cross-peak movement): 6.6 µM | Kd ([3]; residue K179, Repeat IV, read-out: Dissociation constant from NMR cross-peak movement): 6.6 µM | Kd ([3]; residue K180, Repeat IV, read-out: Dissociation constant from NMR cross-peak movement): 4.1 µM | Kd ([3]; residue K184, Repeat IV, read-out: Dissociation constant from NMR cross-peak movement): 18.3 µM | Kd ([3]; residue K185, Repeat IV, read-out: Dissociation constant from NMR cross-peak movement): 4.5 µM | Kd ([3]; residue K189, Repeat V, read-out: Dissociation constant from NMR cross-peak movement): 5.9 µM | Kd ([3]; residue K190, Repeat V, read-out: Dissociation constant from NMR cross-peak movement): 4.1 µM | Kd ([3]; residue K194, Repeat V, read-out: Dissociation constant from NMR cross-peak movement): 4.9 µM | Kd ([3]; residue K195, Repeat V, read-out: Dissociation constant from NMR cross-peak movement): 4.6 µM | Kd ([3]; residue V196, Repeat V, read-out: Dissociation constant from NMR cross-peak movement): 2.7 µM

O=C(O)[C@@H]1O[C@@H](O[C@H]2[C@H](O)[C@@H](NS(=O)(=O)O)[C@@H](O[C@H]3[C@H](O)[C@@H](OS(=O)(=O)O)[C@H]4OC[C@@H]3O4)O[C@@H]2CO)[C@H](OS(=O)(=O)O)[C@@H](O)[C@@H]1O[C@H]1O[C@H](CO)[C@@H](O[C@@H]2O[C@@H](C(=O)O)[C@@H](O[C@H]3O[C@H](CO)[C@@H](O[C@@H]4O[C@@H](C(=O)O)[C@@H](O[C@H]5O[C@H](CO)[C@@H](O[C@@H]6O[C@@H](C(=O)O)[C@@H](O[C@H]7O[C@H](CO)[C@@H](O[C@@H]8O[C@@H](C(=O)O)[C@@H](O[C@H]9O[C@H](CO)[C@@H](O[C@@H]%10O[C@@H](C(=O)O)[C@@H](O[C@H]%11O[C@H](CO)[C@@H](O[C@@H]%12O[C@@H](C(=O)O)[C@@H](O[C@H]%13O[C@H](CO)[C@@H](O)[C@H](O)[C@H]%13NS(=O)(=O)O)[C@H](O)[C@H]%12OS(=O)(=O)O)[C@H](O)[C@H]%11NS(=O)(=O)O)[C@H](O)[C@H]%10OS(=O)(=O)O)[C@H](O)[C@H]9NS(=O)(=O)O)[C@H](O)[C@H]8OS(=O)(=O)O)[C@H](O)[C@H]7NS(=O)(=O)O)[C@H](O)[C@H]6OS(=O)(=O)O)[C@H](O)[C@H]5NS(=O)(=O)O)[C@H](O)[C@H]4OS(=O)(=O)O)[C@H](O)[C@H]3NS(=O)(=O)O)[C@H](O)[C@H]2OS(=O)(=O)O)[C@H](O)[C@H]1NS(=O)(=O)O [compound 27]
dissociation constant, KD [1, 4]: no detectable binding; also recorded: no binding detected
